PubChem BioAssay (NCI)
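96-well plates; 48 h exposure; 5 concentrations. Endpoints by linear interpolation between flanking doses. Not reached: highest tested concentration assigned. TGI: total growth inhibition.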

Tests used:
Assay in all cases: DTP human tumour cell line panel, 48 h
SK-OV-3 ovarian = system: SK-OV-3 ovarian
IGROV1 ovarian = system: IGROV1 ovarian
MDA-MB-231 breast = system: MDA-MB-231 breast
U251 CNS = system: U251 CNS
SN12C renal = system: SN12C renal
OVCAR-4 ovarian = system: OVCAR-4 ovarian
K-562 leukemia = system: K-562 leukemia
NCI/ADR-RES ovarian = system: NCI/ADR-RES ovarian
ACHN renal = system: ACHN renal
SF-268 CNS = system: SF-268 CNS
KM12 colon = system: KM12 colon
M14 melanoma = system: M14 melanoma
NCI-H23 lung = system: NCI-H23 lung
SK-MEL-5 melanoma = system: SK-MEL-5 melanoma
A498 renal = system: A498 renal
A549 NSCLC = system: A549 NSCLC
NCI-H226 lung = system: NCI-H226 lung
HL-60(TB) leukemia = system: HL-60(TB) leukemia
OVCAR-3 ovarian = system: OVCAR-3 ovarian
EKVX NSCLC = system: EKVX NSCLC
CCRF-CEM leukemia = system: CCRF-CEM leukemia
BT-549 breast = system: BT-549 breast
UACC-257 melanoma = system: UACC-257 melanoma
HOP-92 NSCLC = system: HOP-92 NSCLC
SNB-19 CNS = system: SNB-19 CNS
SW-620 colon = system: SW-620 colon
TK-10 renal = system: TK-10 renal
HCT-15 colon = system: HCT-15 colon
DU-145 prostate = system: DU-145 prostate
SNB-75 CNS = system: SNB-75 CNS
UACC-62 melanoma = system: UACC-62 melanoma
T-47D breast = system: T-47D breast
OVCAR-8 ovarian = system: OVCAR-8 ovarian
MOLT-4 leukemia = system: MOLT-4 leukemia
NCI-H522 lung = system: NCI-H522 lung
HCT-116 colon = system: HCT-116 colon
MALME-3M melanoma = system: MALME-3M melanoma
HCC-2998 colon = system: HCC-2998 colon
UO-31 renal = system: UO-31 renal
MDA-N = system: MDA-N
SR leukemia = system: SR leukemia
786-0 renal = system: 786-0 renal
MDA-MB-435 = system: MDA-MB-435
LOX IMVI melanoma = system: LOX IMVI melanoma
OVCAR-5 ovarian = system: OVCAR-5 ovarian
NCI-H460 lung = system: NCI-H460 lung
HS 578T breast = system: HS 578T breast
SK-MEL-2 melanoma = system: SK-MEL-2 melanoma
RPMI-8226 leukemia = system: RPMI-8226 leukemia
COLO 205 colon = system: COLO 205 colon
PC-3 prostate = system: PC-3 prostate
SF-539 CNS = system: SF-539 CNS
HT29 colon = system: HT29 colon
HOP-62 NSCLC = system: HOP-62 NSCLC
CAKI-1 renal = system: CAKI-1 renal
SK-MEL-28 melanoma = system: SK-MEL-28 melanoma
SF-295 CNS = system: SF-295 CNS
RXF 393 renal = system: RXF 393 renal
MCF7 breast = system: MCF7 breast

SMILES: CN(C)c1cccc(/C=C(\C#N)c2ccccc2)c1
- TGI (SK-OV-3 ovarian): > 49.9 µM
- TGI (IGROV1 ovarian): > 72.5 µM
- TGI (MDA-MB-231 breast): 53.7 µM
- TGI (U251 CNS): 27.1 µM
- TGI (SN12C renal): > 100 µM
- TGI (OVCAR-4 ovarian): 98 µM
- TGI (K-562 leukemia): > 14.4 µM
- TGI (NCI/ADR-RES ovarian): 3.5 µM
- TGI (ACHN renal): > 100 µM
- TGI (SF-268 CNS): > 100 µM
- TGI (KM12 colon): 8.92 µM
- TGI (M14 melanoma): > 47.2 µM
- TGI (NCI-H23 lung): 45 µM
- TGI (SK-MEL-5 melanoma): 21 µM
- TGI (A498 renal): 35.4 µM
- TGI (A549 NSCLC): > 79.9 µM
- TGI (NCI-H226 lung): 24.6 µM
- TGI (HL-60(TB) leukemia): 1.34 µM
- TGI (OVCAR-3 ovarian): 3.29 µM
- TGI (EKVX NSCLC): > 100 µM
- TGI (CCRF-CEM leukemia): > 37.3 µM
- TGI (BT-549 breast): > 100 µM
- TGI (UACC-257 melanoma): > 71.7 µM
- TGI (HOP-92 NSCLC): 39.1 µM
- TGI (SNB-19 CNS): > 53.8 µM
- TGI (SW-620 colon): > 56 µM
- TGI (TK-10 renal): 56.6 µM
- TGI (HCT-15 colon): > 58.4 µM
- TGI (DU-145 prostate): 33.5 µM
- TGI (SNB-75 CNS): 5.05 µM
- TGI (UACC-62 melanoma): > 100 µM
- TGI (T-47D breast): 86.5 µM
- TGI (OVCAR-8 ovarian): 40 µM
- TGI (MOLT-4 leukemia): > 21.1 µM
- TGI (NCI-H522 lung): 5.75 µM
- TGI (HCT-116 colon): 57.5 µM
- TGI (MALME-3M melanoma): > 73.7 µM
- TGI (HCC-2998 colon): 7.28 µM
- TGI (UO-31 renal): > 100 µM
- TGI (MDA-N): 0.161 µM
- TGI (SR leukemia): > 8.15 µM
- TGI (786-0 renal): > 60.9 µM
- TGI (MDA-MB-435): 0.18 µM
- TGI (LOX IMVI melanoma): > 59.5 µM
- TGI (OVCAR-5 ovarian): 64 µM
- TGI (NCI-H460 lung): 12.5 µM
- TGI (HS 578T breast): 2.79 µM
- TGI (SK-MEL-2 melanoma): 47.5 µM
- TGI (RPMI-8226 leukemia): > 42.8 µM
- TGI (COLO 205 colon): 5.41 µM
- TGI (PC-3 prostate): > 100 µM
- TGI (SF-539 CNS): 4.32 µM
- TGI (HT29 colon): 2.57 µM
- TGI (HOP-62 NSCLC): 8.65 µM
- TGI (CAKI-1 renal): > 100 µM
- TGI (SK-MEL-28 melanoma): > 100 µM
- TGI (SF-295 CNS): 15.1 µM
- TGI (RXF 393 renal): 4.51 µM

SMILES: CN1C(=O)C(C#N)C2C[C@@]1(C)Oc1ccccc12 (some centres not stated)
- TGI (SK-OV-3 ovarian): > 100 µM
- TGI (IGROV1 ovarian): > 100 µM
- TGI (MDA-MB-231 breast): > 100 µM
- TGI (U251 CNS): > 100 µM
- TGI (OVCAR-4 ovarian): > 100 µM
- TGI (K-562 leukemia): > 100 µM
- TGI (NCI/ADR-RES ovarian): > 100 µM
- TGI (ACHN renal): > 100 µM
- TGI (SF-268 CNS): > 100 µM
- TGI (KM12 colon): > 100 µM
- TGI (M14 melanoma): > 100 µM
- TGI (NCI-H23 lung): > 100 µM
- TGI (SK-MEL-5 melanoma): > 100 µM
- TGI (A498 renal): > 100 µM
- TGI (A549 NSCLC): > 100 µM
- TGI (NCI-H226 lung): > 100 µM
- TGI (HL-60(TB) leukemia): > 100 µM
- TGI (OVCAR-3 ovarian): > 100 µM
- TGI (EKVX NSCLC): > 100 µM
- TGI (CCRF-CEM leukemia): > 100 µM
- TGI (BT-549 breast): > 100 µM
- TGI (UACC-257 melanoma): > 100 µM
- TGI (HOP-92 NSCLC): > 100 µM
- TGI (SNB-19 CNS): > 100 µM
- TGI (SW-620 colon): > 100 µM
- TGI (TK-10 renal): > 100 µM
- TGI (HCT-15 colon): > 100 µM
- TGI (DU-145 prostate): > 100 µM
- TGI (SNB-75 CNS): > 100 µM
- TGI (UACC-62 melanoma): > 100 µM
- TGI (OVCAR-8 ovarian): > 100 µM
- TGI (MOLT-4 leukemia): > 100 µM
- TGI (NCI-H522 lung): > 100 µM
- TGI (HCT-116 colon): > 100 µM
- TGI (HCC-2998 colon): > 100 µM
- TGI (UO-31 renal): > 100 µM
- TGI (MDA-N): > 100 µM
- TGI (786-0 renal): > 100 µM
- TGI (MDA-MB-435): > 100 µM
- TGI (LOX IMVI melanoma): > 100 µM
- TGI (OVCAR-5 ovarian): > 100 µM
- TGI (NCI-H460 lung): > 100 µM
- TGI (HS 578T breast): > 100 µM
- TGI (SK-MEL-2 melanoma): > 100 µM
- TGI (RPMI-8226 leukemia): > 100 µM
- TGI (COLO 205 colon): > 100 µM
- TGI (PC-3 prostate): > 100 µM
- TGI (HT29 colon): > 100 µM
- TGI (MCF7 breast): > 100 µM
- TGI (HOP-62 NSCLC): > 100 µM
- TGI (CAKI-1 renal): > 100 µM
- TGI (SK-MEL-28 melanoma): > 100 µM
- TGI (SF-295 CNS): > 100 µM
- TGI (RXF 393 renal): > 100 µM
